According to PubChem BioAssay (NCI):
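These data come from cells grown in 96-well plates and exposed to compound for 48 hours at five concentrations. At the GI50, growth is halved. TGI denotes the concentration required for complete inhibition of growth.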

Key:
Test in all cases: NCI anticancer screen, dose series, 48 h
CAKI-1 renal = test system: CAKI-1 renal
NCI-H23 lung = test system: NCI-H23 lung
MDA-MB-231 breast = test system: MDA-MB-231 breast
OVCAR-8 ovarian = test system: OVCAR-8 ovarian
RPMI-8226 leukemia = test system: RPMI-8226 leukemia
SNB-19 CNS = test system: SNB-19 CNS
HCC-2998 colon = test system: HCC-2998 colon
HL-60(TB) leukemia = test system: HL-60(TB) leukemia
RXF 393 renal = test system: RXF 393 renal
EKVX NSCLC = test system: EKVX NSCLC

| SMILES | GI50 (CAKI-1 renal) [µM] | TGI (CAKI-1 renal) [µM] | GI50 (NCI-H23 lung) [µM] | TGI (NCI-H23 lung) [µM] | GI50 (MDA-MB-231 breast) [µM] | TGI (MDA-MB-231 breast) [µM] | GI50 (OVCAR-8 ovarian) [µM] | TGI (OVCAR-8 ovarian) [µM] | GI50 (RPMI-8226 leukemia) [µM] | TGI (RPMI-8226 leukemia) [µM] | GI50 (SNB-19 CNS) [µM] | TGI (SNB-19 CNS) [µM] | GI50 (HCC-2998 colon) [µM] | TGI (HCC-2998 colon) [µM] | GI50 (HL-60(TB) leukemia) [µM] | TGI (HL-60(TB) leukemia) [µM] | GI50 (RXF 393 renal) [µM] | TGI (RXF 393 renal) [µM] | GI50 (EKVX NSCLC) [µM] | TGI (EKVX NSCLC) [µM] |
| --- | --- | --- | --- | --- | --- | --- | --- | --- | --- | --- | --- | --- | --- | --- | --- | --- | --- | --- | --- | --- |
| CNC(=O)c1ccc(-c2cnc3ncc(Cc4ccc5ncccc5c4)n3n2)cc1F | > 100 | > 100 | > 100 | > 100 | 40.8 | > 100 | 52.4 | > 100 | > 100 | > 100 | > 100 | > 100 | > 100 | > 100 | > 100 | > 100 | 13.4 | > 100 | – | – |
| CNc1nc(NC2CCCC2)nc(Sc2ccc(OC)cc2)n1 | > 10 | > 10 | > 10 | > 10 | > 10 | > 10 | > 10 | > 10 | > 10 | > 10 | > 10 | > 10 | > 10 | > 10 | > 10 | > 10 | > 10 | > 10 | – | – |
| COC(=O)c1c(O)ccc2[nH]c(C)c(C#N)c12 | 30.4 | 90.1 | 77.1 | > 100 | 39.9 | > 100 | 43.2 | > 100 | 27.3 | > 100 | 77.7 | > 100 | 95.1 | > 100 | – | – | 22 | > 100 | 96.2 | > 100 |
| O=C(Nc1cc(-c2ccccc2)[nH]n1)c1ccc(Cl)cc1 | 2.66 | > 100 | > 100 | > 100 | 30.4 | > 100 | 24.2 | > 100 | > 100 | > 100 | 74.2 | > 100 | > 100 | > 100 | – | – | 7.16 | > 100 | > 100 | > 100 |
| CNC(=O)c1cn(C[C@H](F)CCc2ccc(NC(=O)Cc3cc(OC4CC(F)(F)C4)cc(C)n3)nn2)nn1 | – | – | > 100 | > 100 | > 100 | > 100 | > 100 | > 100 | 5.65 | > 100 | > 100 | > 100 | > 100 | > 100 | > 100 | > 100 | > 31.5 | > 100 | > 100 | > 100 |
| COc1cc(/C=C2\CC3C4CC=C5CC(N6CCCC6)CC[C@]5(C)C4CC[C@]3(C)C2OC(C)=O)ccc1OCCN1CCCC1 (some centres undefined) | 1.55 | 3.93 | 14.2 | 27.6 | 8.82 | 22.5 | – | – | 1.67 | 3.82 | 5.73 | 22.8 | – | – | 2.05 | 4.36 | – | – | 3.41 | 13.4 |
| CCCCCC(=O)Oc1ccc(/C(=C(\C)c2ccc(OC)cc2)c2ccc(OCCN3CCCCC3)cc2)cc1 | – | – | 10.1 | 23.8 | 9.32 | 21.9 | 12.8 | 29.6 | 3.24 | – | 11.4 | 24.8 | 12.5 | 25.5 | 3.98 | 17.8 | 1.8 | 9.52 | 9.92 | 22.7 |
| Cc1ccc(C(=O)CC(Sc2cccc(Cl)c2Cl)c2ccc(Cl)cc2)cc1C (centres undefined) | 21.6 | 45.8 | 17.4 | 32.6 | 17.9 | 39 | 24.6 | 74 | 5.76 | 48.2 | 27.5 | 78.8 | – | – | 30.6 | > 100 | 25.8 | 56.9 | 21.6 | 42.1 |
| Cc1ccc(-c2nc(C(Cl)Cl)n3nc(-c4ccccc4)cc3n2)cc1 | 0.31 | 1.49 | 1.17 | > 100 | 0.21 | 0.678 | 0.512 | > 100 | 0.499 | 3.11 | – | – | – | – | – | – | 0.298 | 0.896 | – | – |
| CN(C)c1nc(-c2cccs2)n2nc(-c3ccc(Cl)cc3)cc2n1 | – | – | 6.51 | > 100 | 3.7 | > 100 | 3.59 | > 100 | > 100 | > 100 | 64.1 | > 100 | > 100 | > 100 | > 100 | > 100 | 3.39 | > 100 | 4.38 | > 100 |
| COc1ccc2c(c1)C=CC(C#N)N2C(=O)c1ccccc1 (centres undefined) | < 0.01 | > 100 | < 0.01 | > 100 | < 0.01 | 3.14 | < 0.01 | > 100 | < 0.01 | > 100 | < 0.01 | > 100 | 0.0129 | > 100 | < 0.01 | – | – | – | < 0.01 | > 100 |
| NC(N)=N/N=C/c1c(-c2ccccn2)nc2sc(Cl)cn12 | 8.59 | 15.6 | 11.5 | 19.1 | 5.64 | 11.7 | 6.32 | 13.5 | 11.5 | 29 | 7.97 | 16 | – | – | 11 | 25.8 | – | – | 8.95 | 16.1 |
| Oc1c(Br)cc(CN(Cc2cc(Br)c(O)c(Br)c2)C2CCCCC2)cc1Br | – | > 100 | – | > 100 | – | > 100 | – | > 100 | – | > 100 | – | > 100 | – | – | – | > 100 | – | > 100 | – | > 100 |
| CNC(=O)c1cc(Oc2ccc(NC(=O)Nc3ccc(Cl)c(OC(F)(F)F)c3)c(F)c2)ccn1 | 2.89 | > 33.2 | 0.913 | 5.58 | 1.26 | 8.74 | – | – | 1.32 | 7.85 | 3.06 | 20.7 | 1.62 | 7.08 | 1 | 6.53 | 3.58 | 18.9 | 1.55 | 23.6 |
